± gives the uncertainty stated by the source.
Experiment: xn = mol fraction of the nth substance listed

C=CCn1cc[n+](C)c1.O=S(=O)([N-]S(=O)(=O)C(F)(F)F)C(F)(F)F + CCCO
Conditions	viscosity [mPa·s]
313.15 K, 100 kPa, x1 = 0.8974	15.85 ± 1.3

CC(=O)N(C)C + CCCO
viscosity [mPa·s]
Conditions	298.15 K	303.15 K	313.15 K
100 kPa, x1 = 0.0535	1.767 ± 0.037	–	1.29 ± 0.027
100 kPa, x1 = 0.1052	1.618 ± 0.034	–	1.206 ± 0.025
100 kPa, x1 = 0.2053	1.423 ± 0.03	–	1.093 ± 0.023
100 kPa, x1 = 0.3066	1.285 ± 0.027	–	1.008 ± 0.021
100 kPa, x1 = 0.407	1.197 ± 0.025	–	0.948 ± 0.02
100 kPa, x1 = 0.5061	1.143 ± 0.024	–	0.904 ± 0.019
100 kPa, x1 = 0.5984	1.097 ± 0.023	–	0.8744 ± 0.018
100 kPa, x1 = 0.701	1.045 ± 0.022	–	0.8402 ± 0.017
100 kPa, x1 = 0.8014	0.9977 ± 0.021	–	0.8138 ± 0.017
100 kPa, x1 = 0.9025	0.9648 ± 0.02	–	0.7886 ± 0.016
100 kPa, x1 = 0.9583	0.944 ± 0.02	–	0.7749 ± 0.016
101 kPa, x1 = 0.0966	–	1.47 ± 0.013	–
101 kPa, x1 = 0.1975	–	1.293 ± 0.012	–
101 kPa, x1 = 0.2992	–	1.193 ± 0.012	–
101 kPa, x1 = 0.3986	–	1.103 ± 0.011	–
101 kPa, x1 = 0.4894	–	1.048 ± 0.011	–
101 kPa, x1 = 0.6025	–	1 ± 0.01	–
101 kPa, x1 = 0.697	–	0.963 ± 0.01	–
101 kPa, x1 = 0.7955	–	0.93 ± 0.01	–
101 kPa, x1 = 0.9012	–	0.898 ± 0.01	–

CCC1CCCCC1 + CCCCO
viscosity [mPa·s], 100 kPa
Conditions	x2 = 0.1001	x2 = 0.2	x2 = 0.3001	x2 = 0.4	x2 = 0.4999	x2 = 0.5997	x2 = 0.7	x2 = 0.8	x2 = 0.9
293.15 K	0.867 ± 0.027	0.908 ± 0.028	0.984 ± 0.031	1.1 ± 0.034	1.254 ± 0.039	1.451 ± 0.045	1.718 ± 0.054	2.051 ± 0.064	2.436 ± 0.076
298.15 K	0.813 ± 0.025	0.849 ± 0.027	0.912 ± 0.029	1.007 ± 0.031	1.142 ± 0.036	1.314 ± 0.041	1.549 ± 0.048	1.817 ± 0.057	2.157 ± 0.067
303.15 K	0.758 ± 0.024	0.793 ± 0.025	0.851 ± 0.027	0.929 ± 0.029	1.045 ± 0.033	1.202 ± 0.038	1.399 ± 0.044	1.625 ± 0.051	1.911 ± 0.06
308.15 K	0.716 ± 0.022	0.744 ± 0.023	0.794 ± 0.025	0.861 ± 0.027	0.958 ± 0.03	1.08 ± 0.034	1.25 ± 0.039	1.465 ± 0.046	1.711 ± 0.053
313.15 K	0.666 ± 0.021	0.692 ± 0.022	0.729 ± 0.023	0.791 ± 0.025	0.871 ± 0.027	0.98 ± 0.031	1.121 ± 0.035	1.303 ± 0.041	1.515 ± 0.047
318.15 K	0.628 ± 0.02	0.646 ± 0.02	0.681 ± 0.021	0.734 ± 0.023	0.803 ± 0.025	0.894 ± 0.028	1.018 ± 0.032	1.174 ± 0.037	1.351 ± 0.042
323.15 K	0.584 ± 0.018	0.604 ± 0.019	0.633 ± 0.02	0.678 ± 0.021	0.737 ± 0.023	0.814 ± 0.025	0.924 ± 0.029	1.058 ± 0.033	1.219 ± 0.038

Source: the CheMixHub viscosity set
